Values joined by “and” are separate entries in the source; they are usually repeats but may differ in a detail not shown here. Identical values can stand only once.
How the values were obtained:
Type in all cases: cell-based
GluN1–1a/2B = GluN1–1a/2B (Rattus norvegicus, UniProt P35439+Q00960); assay: Two-electrode voltage-clamp recordings, Xenopus oocytes; conditions: agonist concentration-response, isoform 1a
GluN1–1a/2BC1/2DC2 = GluN1–1a/2BC1/2DC2 (Rattus norvegicus, UniProt P35439+Q00959+Q00960+Q62645, A876H/F846L/G856D/H848F/K857R/M851T/M860L/Q845K/R869K/V861L/V866F); assay: as above; conditions: agonist concentration-response, isoform 1a
GluN1–1a/2D = GluN1–1a/2D (Rattus norvegicus, UniProt P35439+Q62645); assay: as above
[1] = biological target: GluN1–1a A/A (GluN1/2A/2A) (Rattus norvegicus, UniProt P35439+Q00959); assay: Outside-out patch-clamp recordings, fast application
GluN1–1a A/A (GluN1/2A/2A), sequence (Q00959 23-1464, other chains not shown): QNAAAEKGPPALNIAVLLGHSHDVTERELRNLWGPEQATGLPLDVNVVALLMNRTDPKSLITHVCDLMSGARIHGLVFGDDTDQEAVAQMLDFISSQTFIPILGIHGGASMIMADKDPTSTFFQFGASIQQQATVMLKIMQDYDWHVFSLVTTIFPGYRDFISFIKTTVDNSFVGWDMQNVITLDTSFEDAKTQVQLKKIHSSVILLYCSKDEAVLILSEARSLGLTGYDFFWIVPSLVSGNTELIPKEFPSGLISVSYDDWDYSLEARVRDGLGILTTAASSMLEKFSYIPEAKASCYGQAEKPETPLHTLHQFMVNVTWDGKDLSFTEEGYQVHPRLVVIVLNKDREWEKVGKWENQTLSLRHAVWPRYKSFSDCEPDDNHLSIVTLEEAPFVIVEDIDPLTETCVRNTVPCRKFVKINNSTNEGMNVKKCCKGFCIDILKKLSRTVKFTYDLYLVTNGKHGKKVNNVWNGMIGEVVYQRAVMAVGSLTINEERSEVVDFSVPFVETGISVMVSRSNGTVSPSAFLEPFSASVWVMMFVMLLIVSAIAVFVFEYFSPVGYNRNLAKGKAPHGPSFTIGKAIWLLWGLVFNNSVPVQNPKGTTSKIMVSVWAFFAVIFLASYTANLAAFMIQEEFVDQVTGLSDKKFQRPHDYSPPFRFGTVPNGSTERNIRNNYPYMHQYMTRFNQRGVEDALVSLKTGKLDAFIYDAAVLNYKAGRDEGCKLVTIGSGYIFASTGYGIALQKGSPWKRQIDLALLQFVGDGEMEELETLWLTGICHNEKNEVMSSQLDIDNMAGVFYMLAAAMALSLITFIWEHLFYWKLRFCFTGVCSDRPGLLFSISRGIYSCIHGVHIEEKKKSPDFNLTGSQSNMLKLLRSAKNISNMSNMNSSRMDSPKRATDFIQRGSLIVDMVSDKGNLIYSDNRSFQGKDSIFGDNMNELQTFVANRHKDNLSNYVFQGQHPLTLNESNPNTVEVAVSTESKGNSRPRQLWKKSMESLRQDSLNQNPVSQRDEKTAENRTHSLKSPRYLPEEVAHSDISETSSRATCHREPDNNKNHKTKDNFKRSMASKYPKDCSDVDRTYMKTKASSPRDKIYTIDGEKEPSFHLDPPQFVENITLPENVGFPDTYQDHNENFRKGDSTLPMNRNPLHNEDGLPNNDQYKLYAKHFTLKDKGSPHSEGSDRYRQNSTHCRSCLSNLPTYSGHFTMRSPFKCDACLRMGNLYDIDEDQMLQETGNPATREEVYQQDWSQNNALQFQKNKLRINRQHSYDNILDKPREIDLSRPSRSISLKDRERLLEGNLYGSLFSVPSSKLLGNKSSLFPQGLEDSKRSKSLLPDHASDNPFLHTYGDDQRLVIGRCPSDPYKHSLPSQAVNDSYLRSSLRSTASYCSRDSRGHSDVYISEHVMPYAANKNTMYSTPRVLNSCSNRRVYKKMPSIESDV

[2] = biological target: GluN1–1a AC1/AC2 (GluN1/2AC1/2AC2) (Rattus norvegicus, UniProt P35439+Q00959); assay: as above
GluN1–1a AC1/BC2 = GluN1–1a AC1/BC2 (Rattus norvegicus, UniProt P35439+Q00959+Q00960, A876H/F846L/G856D/H848F/K857R/M851T/M860L/Q845K/V861L); assay: as above
GluN1–1a B/B = GluN1–1a B/B (Rattus norvegicus, UniProt P35439+Q00960); assay: as above
GluN1–1a BC1/BC2 = GluN1–1a BC1/BC2 (Rattus norvegicus, UniProt P35439+Q00959+Q00960, A876H/F846L/G856D/H848F/K857R/M851T/M860L/Q845K/V861L); assay: as above
GluN1–1a BC1/DC2 = GluN1–1a BC1/DC2 (Rattus norvegicus, UniProt P35439+Q00959+Q00960+Q62645, A876H/F846L/G856D/H848F/K857R/M851T/M860L/Q845K/R869K/V861L/V866F); assay: as above
GluN1–1a D/D = GluN1–1a D/D (Rattus norvegicus, UniProt P35439+Q62645); assay: as above
GluN1–1a DC1/DC2 = GluN1–1a DC1/DC2 (Rattus norvegicus, UniProt P35439+Q00959+Q62645, R869K/V866F); assay: as above
[3] = biological target: GluN1–1b A/A (GluN1/2A/2A) (Rattus norvegicus, UniProt P35439+Q00959); assay: as above
GluN1–1b A/A (GluN1/2A/2A), sequence (Q00959 23-1464, other chains not shown): as above

GluN1–1b AC1/AC2 = GluN1–1b AC1/AC2 (Rattus norvegicus, UniProt P35439+Q00959); assay: as above
GluN1–1b AC1/BC2 = GluN1–1b AC1/BC2 (Rattus norvegicus, UniProt P35439+Q00959+Q00960, A876H/F846L/G856D/H848F/K857R/M851T/M860L/Q845K/V861L); assay: as above
GluN1–1b B/B = GluN1–1b B/B (Rattus norvegicus, UniProt P35439+Q00960); assay: as above
GluN1–1b B/B, sequence (Q00960 27-1482, other chains not shown): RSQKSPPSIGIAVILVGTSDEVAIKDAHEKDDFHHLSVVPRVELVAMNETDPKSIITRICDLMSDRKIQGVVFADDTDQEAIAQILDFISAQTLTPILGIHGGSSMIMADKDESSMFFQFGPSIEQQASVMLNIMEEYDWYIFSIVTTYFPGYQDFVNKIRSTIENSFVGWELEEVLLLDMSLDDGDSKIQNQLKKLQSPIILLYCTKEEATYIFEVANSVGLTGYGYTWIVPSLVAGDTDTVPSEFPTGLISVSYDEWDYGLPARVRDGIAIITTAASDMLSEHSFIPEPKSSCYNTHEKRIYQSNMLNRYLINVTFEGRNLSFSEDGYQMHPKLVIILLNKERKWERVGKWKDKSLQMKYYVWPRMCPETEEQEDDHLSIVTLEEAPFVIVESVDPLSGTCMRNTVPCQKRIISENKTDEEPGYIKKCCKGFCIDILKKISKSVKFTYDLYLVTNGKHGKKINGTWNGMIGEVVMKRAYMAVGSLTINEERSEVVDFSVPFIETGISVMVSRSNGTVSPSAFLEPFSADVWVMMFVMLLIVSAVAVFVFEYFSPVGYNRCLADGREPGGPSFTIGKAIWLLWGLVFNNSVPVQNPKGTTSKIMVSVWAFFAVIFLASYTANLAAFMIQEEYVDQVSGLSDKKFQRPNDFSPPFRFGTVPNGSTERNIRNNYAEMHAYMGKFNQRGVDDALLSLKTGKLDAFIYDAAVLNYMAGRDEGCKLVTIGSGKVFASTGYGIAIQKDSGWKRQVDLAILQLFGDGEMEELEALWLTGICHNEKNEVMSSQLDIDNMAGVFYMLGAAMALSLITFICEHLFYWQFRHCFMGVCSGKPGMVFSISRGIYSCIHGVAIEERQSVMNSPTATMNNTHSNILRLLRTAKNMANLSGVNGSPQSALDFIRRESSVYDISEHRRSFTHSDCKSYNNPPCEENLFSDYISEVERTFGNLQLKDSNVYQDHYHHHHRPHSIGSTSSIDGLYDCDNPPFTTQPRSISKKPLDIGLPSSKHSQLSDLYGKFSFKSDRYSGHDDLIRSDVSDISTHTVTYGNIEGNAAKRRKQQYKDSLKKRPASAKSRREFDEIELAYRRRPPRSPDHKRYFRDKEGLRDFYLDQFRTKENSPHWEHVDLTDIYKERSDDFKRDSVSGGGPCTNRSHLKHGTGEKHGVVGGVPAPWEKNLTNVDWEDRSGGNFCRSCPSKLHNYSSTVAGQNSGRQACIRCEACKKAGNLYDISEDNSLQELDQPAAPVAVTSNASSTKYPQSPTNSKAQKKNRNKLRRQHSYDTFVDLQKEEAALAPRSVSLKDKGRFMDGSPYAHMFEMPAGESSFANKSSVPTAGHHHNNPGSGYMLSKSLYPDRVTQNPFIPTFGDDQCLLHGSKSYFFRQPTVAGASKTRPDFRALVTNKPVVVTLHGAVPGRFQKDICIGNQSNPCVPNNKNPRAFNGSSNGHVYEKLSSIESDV

GluN1–1b BC1/BC2 = GluN1–1b BC1/BC2 (Rattus norvegicus, UniProt P35439+Q00959+Q00960, A876H/F846L/G856D/H848F/K857R/M851T/M860L/Q845K/V861L); assay: as above
GluN1–1b BC1/DC2 = GluN1–1b BC1/DC2 (Rattus norvegicus, UniProt P35439+Q00959+Q00960+Q62645, A876H/F846L/G856D/H848F/K857R/M851T/M860L/Q845K/R869K/V861L/V866F); assay: as above
GluN1–1b D/D = GluN1–1b D/D (Rattus norvegicus, UniProt P35439+Q62645); assay: as above
GluN1–1b DC1/DC2 = GluN1–1b DC1/DC2 (Rattus norvegicus, UniProt P35439+Q00959+Q62645, R869K/V866F); assay: as above
[4] = 1 mM glutamate 3–5 ms, 100 μM glycine
[5] = weighted deactivation time constant
[6] = deactivation, single-exponential fit
[7] = deactivation, two-exponential fit
[8] = fitted percentage of the fast component

Question: How did the “nH (Hill coefficient)” value (GluN1–1a/2B) turn out when `N[C@@H](CCC(=O)O)C(=O)O` [glutamate] was run?
Answer: 1.6

Question: And the “nH (Hill coefficient)” value (GluN1–1a/2BC1/2DC2)?
Answer: 1.4

Question: What about the EC50 (GluN1–1a/2D; GluN1 isoform 1a, glutamate with 100 μM glycine, glycine with 300 μM glutamate) of the same molecule?
Answer: 270 ± 10 nM

Question: What about the “nH (Hill coefficient)” value (GluN1–1a/2D; agonist concentration-response, isoform 1a) of the same molecule?
Answer: 1.7

Question: What about the “rise time (10–90%)” value [1, 4] of the same molecule?
Answer: 3.9 ± 0.3 ms

Question: And the τfast ([1]; deactivation, single-exponential fit, 1 mM glutamate 3–5 ms, 100 μM glycine)?
Answer: 87 ± 7 ms

Question: And the τw [1, 5]?
Answer: 87 ± 7^#,$ ms

Question: And the “rise time (10–90%)” value [2, 4]?
Answer: 4.2 ± 0.9 ms

Question: And the τfast [2, 6]?
Answer: 78 ± 13 ms

Question: What about the τw [2, 5] of the same molecule?
Answer: 78 ± 13 ^*^,#,$ ms

Question: What about the “rise time (10–90%)” value (GluN1–1a AC1/BC2; [4]) of the same molecule?
Answer: 10.9 ± 6.2 ms

Question: And the τfast (GluN1–1a AC1/BC2; [7])?
Answer: 93 ± 27 ms

Question: And the τslow (GluN1–1a AC1/BC2; [7])?
Answer: 180 ± 62 ms

Question: What about the “% fast” value (GluN1–1a AC1/BC2; [8]) of the same molecule?
Answer: 63 ± 19%

Question: And the τw (GluN1–1a AC1/BC2; [5])?
Answer: 140 ± 10 ^*^,#,$ ms

Question: And the “rise time (10–90%)” value (GluN1–1a B/B; [4])?
Answer: 14.9 ± 1.2 ms

Question: And the τfast (GluN1–1a B/B; [7])?
Answer: 240 ± 23 ms

Question: What about the τslow (GluN1–1a B/B; [7]) of the same molecule?
Answer: 1020 ± 72 ms

Question: And the “% fast” value (GluN1–1a B/B; [8])?
Answer: 59 ± 5%

Question: What about the τw (GluN1–1a B/B; [5]) of the same molecule?
Answer: 548 ± 45 ^*^,$ ms

Question: And the “rise time (10–90%)” value (GluN1–1a BC1/BC2; [4])?
Answer: 15.1 ± 2.7 ms

Question: What about the τfast (GluN1–1a BC1/BC2; [7]) of the same molecule?
Answer: 205 ± 35 ms

Question: What about the τslow (GluN1–1a BC1/BC2; [7]) of the same molecule?
Answer: 1045 ± 129 ms

Question: What about the “% fast” value (GluN1–1a BC1/BC2; [8]) of the same molecule?
Answer: 58 ± 8%

Question: And the τw (GluN1–1a BC1/BC2; [5])?
Answer: 530 ± 60 ms and 533 ± 58 ^*^,$ ms

Question: What about the “rise time (10–90%)” value (GluN1–1a BC1/DC2; [4]) of the same molecule?
Answer: 10.9 ± 2.5 ms

Question: What about the τfast (GluN1–1a BC1/DC2; [7]) of the same molecule?
Answer: 516 ± 42 ms

Question: And the τslow (GluN1–1a BC1/DC2; [7])?
Answer: 3521 ± 446 ms

Question: What about the “% fast” value (GluN1–1a BC1/DC2; [8]) of the same molecule?
Answer: 54 ± 6%

Question: And the τw (GluN1–1a BC1/DC2; [5])?
Answer: 1770 ± 120 ms and 1767 ± 117 ^*^,#,$ ms

Question: What about the “rise time (10–90%)” value (GluN1–1a D/D; [4]) of the same molecule?
Answer: 6.2 ± 0.7 ms

Question: What about the τfast (GluN1–1a D/D; [7]) of the same molecule?
Answer: 832 ± 146 ms

Question: And the τslow (GluN1–1a D/D; [7])?
Answer: 7436 ± 890 ms

Question: What about the “% fast” value (GluN1–1a D/D; [8]) of the same molecule?
Answer: 24 ± 3%

Question: And the τw (GluN1–1a D/D; [5])?
Answer: 5714 ± 458 ^*^,# ms

Question: What about the “rise time (10–90%)” value (GluN1–1a DC1/DC2; [4]) of the same molecule?
Answer: 8.6 ± 4.8 ms

Question: What about the τfast (GluN1–1a DC1/DC2; [7]) of the same molecule?
Answer: 527 ± 225 ms

Question: And the τslow (GluN1–1a DC1/DC2; [7])?
Answer: 6912 ± 848 ms

Question: And the “% fast” value (GluN1–1a DC1/DC2; [8])?
Answer: 17 ± 7%

Question: What about the τw (GluN1–1a DC1/DC2; [5]) of the same molecule?
Answer: 5700 ± 560 ms and 5700 ± 561 ^*^,# ms

Question: What about the “rise time (10–90%)” value [3, 4] of the same molecule?
Answer: 4.8 ± 0.3 ms

Question: And the τfast [3, 6]?
Answer: 56 ± 6 ms

Question: What about the τw [3, 5] of the same molecule?
Answer: 56 ± 6^#,$ ms

Question: What about the “rise time (10–90%)” value (GluN1–1b AC1/AC2; [4]) of the same molecule?
Answer: 6.3 ± 2.8 ms

Question: And the τfast (GluN1–1b AC1/AC2; [6])?
Answer: 53 ± 7 ms

Question: What about the τw (GluN1–1b AC1/AC2; [5]) of the same molecule?
Answer: 53 ± 7^#,$ ms

Question: What about the “rise time (10–90%)” value (GluN1–1b AC1/BC2; [4]) of the same molecule?
Answer: 3.7 ± 0.5 ms

Question: What about the τfast (GluN1–1b AC1/BC2; [7]) of the same molecule?
Answer: 47 ± 4 ms

Question: What about the τslow (GluN1–1b AC1/BC2; [7]) of the same molecule?
Answer: 160 ± 25 ms

Question: And the “% fast” value (GluN1–1b AC1/BC2; [8])?
Answer: 69 ± 12%

Question: And the τw (GluN1–1b AC1/BC2; [5])?
Answer: 74 ± 5 ^*^,#,$ ms

Question: What about the “rise time (10–90%)” value (GluN1–1b B/B; [4]) of the same molecule?
Answer: 10.3 ± 1.5 ms

Question: And the τfast (GluN1–1b B/B; [7])?
Answer: 81 ± 8 ms

Question: What about the τslow (GluN1–1b B/B; [7]) of the same molecule?
Answer: 208 ± 49 ms

Question: And the “% fast” value (GluN1–1b B/B; [8])?
Answer: 58 ± 12%

Question: What about the τw (GluN1–1b B/B; [5]) of the same molecule?
Answer: 155 ± 19 ^*^,$ ms

Question: What about the “rise time (10–90%)” value (GluN1–1b BC1/BC2; [4]) of the same molecule?
Answer: 8.3 ± 1.6 ms

Question: What about the τfast (GluN1–1b BC1/BC2; [7]) of the same molecule?
Answer: 101 ± 15 ms

Question: And the τslow (GluN1–1b BC1/BC2; [7])?
Answer: 360 ± 89 ms

Question: And the “% fast” value (GluN1–1b BC1/BC2; [8])?
Answer: 84 ± 6%

Question: What about the τw (GluN1–1b BC1/BC2; [5]) of the same molecule?
Answer: 140 ± 10 ms and 138 ± 13 ^*^,$ ms

Question: And the “rise time (10–90%)” value (GluN1–1b BC1/DC2; [4])?
Answer: 9.2 ± 1.3 ms

Question: What about the τfast (GluN1–1b BC1/DC2; [7]) of the same molecule?
Answer: 127 ± 31 ms

Question: What about the τslow (GluN1–1b BC1/DC2; [7]) of the same molecule?
Answer: 634 ± 132 ms

Question: What about the “% fast” value (GluN1–1b BC1/DC2; [8]) of the same molecule?
Answer: 50 ± 15%

Question: And the τw (GluN1–1b BC1/DC2; [5])?
Answer: 290 ± 120 ms and 288 ± 22 ^*^,#,$ ms

Question: What about the “rise time (10–90%)” value (GluN1–1b D/D; [4]) of the same molecule?
Answer: 3.5 ± 0.4 ms

Question: What about the τfast (GluN1–1b D/D; [7]) of the same molecule?
Answer: 245 ± 32 ms

Question: What about the τslow (GluN1–1b D/D; [7]) of the same molecule?
Answer: 1609 ± 148 ms

Question: And the “% fast” value (GluN1–1b D/D; [8])?
Answer: 40 ± 7%

Question: And the τw (GluN1–1b D/D; [5])?
Answer: 992 ± 68 ^*^,# ms

Question: What about the “rise time (10–90%)” value (GluN1–1b DC1/DC2; [4]) of the same molecule?
Answer: 4.5 ± 0.7 ms

Question: And the τfast (GluN1–1b DC1/DC2; [7])?
Answer: 256 ± 92 ms

Question: What about the τslow (GluN1–1b DC1/DC2; [7]) of the same molecule?
Answer: 1399 ± 141 ms

Question: What about the “% fast” value (GluN1–1b DC1/DC2; [8]) of the same molecule?
Answer: 14 ± 4%

Question: And the τw (GluN1–1b DC1/DC2; [5])?
Answer: 1230 ± 90 ms and 1230 ± 86 ^*^,# ms

Source: paper PMC6858497 (The Journal of physiology, 2019)
